Experimental data taken from ChEMBL document CHEMBL4414679, “Discovery of 4,6-pyrimidinediamine derivatives as novel dual EGFR/FGFR inhibitors aimed EGFR/FGFR1-positive NSCLC” (Eur J Med Chem, 2020).

How the values were obtained:
[1] = target: T1, Epidermal growth factor receptor (Homo sapiens, UniProt P00533); experiment: Inhibition of N-terminal GST-tagged human EGFR cytoplasmic domain (669-1210 AA) expressed in baculovirus at 10 uM using FAM-labelled peptide as substrate pre-incubated for 10 mins followed by substrate addition by mobility shift assay relative to control
T1 sequence (P00533 whole entry, the tested form may be a part): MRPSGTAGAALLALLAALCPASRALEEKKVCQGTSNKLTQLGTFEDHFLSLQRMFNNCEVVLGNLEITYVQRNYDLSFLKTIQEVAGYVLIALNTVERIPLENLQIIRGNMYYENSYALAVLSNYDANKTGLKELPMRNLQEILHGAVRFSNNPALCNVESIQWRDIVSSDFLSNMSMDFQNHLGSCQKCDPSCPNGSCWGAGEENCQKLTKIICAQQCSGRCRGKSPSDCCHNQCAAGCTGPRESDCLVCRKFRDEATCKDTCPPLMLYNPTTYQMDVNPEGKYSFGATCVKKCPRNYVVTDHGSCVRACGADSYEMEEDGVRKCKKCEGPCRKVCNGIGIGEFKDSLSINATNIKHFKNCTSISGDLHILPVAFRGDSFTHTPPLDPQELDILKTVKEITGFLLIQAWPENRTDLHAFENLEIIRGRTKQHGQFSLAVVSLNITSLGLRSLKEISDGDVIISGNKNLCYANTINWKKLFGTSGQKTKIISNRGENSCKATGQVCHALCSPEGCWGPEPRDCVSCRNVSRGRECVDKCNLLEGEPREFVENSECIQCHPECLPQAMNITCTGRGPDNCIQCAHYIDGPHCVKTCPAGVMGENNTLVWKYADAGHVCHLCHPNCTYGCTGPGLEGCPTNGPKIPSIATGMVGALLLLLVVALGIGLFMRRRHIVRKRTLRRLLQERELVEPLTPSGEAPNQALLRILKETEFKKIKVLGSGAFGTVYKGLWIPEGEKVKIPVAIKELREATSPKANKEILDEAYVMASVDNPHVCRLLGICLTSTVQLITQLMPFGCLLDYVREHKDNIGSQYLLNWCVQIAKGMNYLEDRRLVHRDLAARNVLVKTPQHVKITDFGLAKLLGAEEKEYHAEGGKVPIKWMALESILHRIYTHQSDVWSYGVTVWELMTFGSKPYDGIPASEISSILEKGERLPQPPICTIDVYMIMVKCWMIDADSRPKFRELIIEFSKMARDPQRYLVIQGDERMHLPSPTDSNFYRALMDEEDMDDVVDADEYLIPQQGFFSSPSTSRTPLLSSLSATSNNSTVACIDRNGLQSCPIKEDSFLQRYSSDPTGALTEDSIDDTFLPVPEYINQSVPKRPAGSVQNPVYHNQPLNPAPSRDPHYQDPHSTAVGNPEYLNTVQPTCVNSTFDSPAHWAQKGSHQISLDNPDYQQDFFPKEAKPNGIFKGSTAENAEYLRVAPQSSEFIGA

[2] = target: T1, Epidermal growth factor receptor; experiment: Inhibition of N-terminal GST-tagged human EGFR (d746-750AA) expressed in baculovirus at 10 uM using FAM-labelled peptide as substrate pre-incubated for 10 mins followed by substrate addition by mobility shift assay relative to control
[3] = test system: HCC827; experiment: Antiproliferative activity against human HCC827 cells assessed as inhibition of cell growth at 10 uM incubated for 48 hrs by MTT assay relative to control; format: functional; conditions: HCC827, 48 h
[4] = test system: Epidermal growth factor receptor (Homo sapiens), P00533 [L858R]; experiment: Inhibition of recombinant human EGFR L858R mutant expressed in baculovirus at 10 uM using FAM-labelled peptide as substrate pre-incubated for 10 mins followed by substrate addition by mobility shift assay relative to control
Chain of Epidermal growth factor receptor (Homo sapiens), P00533 [L858R] (P00533 whole entry L858R): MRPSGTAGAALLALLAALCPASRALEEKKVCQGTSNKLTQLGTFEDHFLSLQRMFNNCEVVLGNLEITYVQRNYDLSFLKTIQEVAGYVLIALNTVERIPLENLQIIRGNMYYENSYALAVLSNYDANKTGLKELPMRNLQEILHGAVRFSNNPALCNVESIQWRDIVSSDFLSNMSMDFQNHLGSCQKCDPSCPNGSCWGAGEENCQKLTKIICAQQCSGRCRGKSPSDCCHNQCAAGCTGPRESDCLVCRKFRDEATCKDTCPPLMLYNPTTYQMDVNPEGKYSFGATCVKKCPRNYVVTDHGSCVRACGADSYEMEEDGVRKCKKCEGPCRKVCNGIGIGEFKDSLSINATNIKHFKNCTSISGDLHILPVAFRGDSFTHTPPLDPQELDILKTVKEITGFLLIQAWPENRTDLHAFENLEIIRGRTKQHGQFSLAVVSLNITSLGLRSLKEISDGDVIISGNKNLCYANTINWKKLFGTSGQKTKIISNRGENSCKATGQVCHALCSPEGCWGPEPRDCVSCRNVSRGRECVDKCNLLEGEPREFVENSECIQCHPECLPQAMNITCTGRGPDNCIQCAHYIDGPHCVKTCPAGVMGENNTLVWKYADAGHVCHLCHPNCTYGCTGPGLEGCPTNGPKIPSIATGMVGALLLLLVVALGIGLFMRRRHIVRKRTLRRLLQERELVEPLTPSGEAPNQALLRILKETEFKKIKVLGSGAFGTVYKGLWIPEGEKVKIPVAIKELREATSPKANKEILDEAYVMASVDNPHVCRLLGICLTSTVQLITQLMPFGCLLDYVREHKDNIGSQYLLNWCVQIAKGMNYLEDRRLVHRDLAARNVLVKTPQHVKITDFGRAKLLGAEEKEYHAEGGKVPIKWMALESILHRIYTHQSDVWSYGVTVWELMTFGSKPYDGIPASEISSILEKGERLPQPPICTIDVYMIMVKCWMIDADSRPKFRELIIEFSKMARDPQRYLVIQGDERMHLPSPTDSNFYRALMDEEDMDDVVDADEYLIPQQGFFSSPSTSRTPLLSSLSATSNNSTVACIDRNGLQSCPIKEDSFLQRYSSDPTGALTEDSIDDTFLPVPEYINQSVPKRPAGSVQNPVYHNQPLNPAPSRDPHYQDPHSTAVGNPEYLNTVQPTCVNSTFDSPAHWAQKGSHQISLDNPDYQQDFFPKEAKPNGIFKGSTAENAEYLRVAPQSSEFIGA

[5] = test system: NCI-H520; experiment: Antiproliferative activity against human NCI-H520 cells assessed as inhibition of cell growth at 10 uM incubated for 48 hrs by MTT assay relative to control; format: functional; conditions: NCI-H520, 48 h
[6] = target: Fibroblast growth factor receptor 1 (Homo sapiens, UniProt P11362); experiment: Inhibition of N-terminal GST-tagged human FGFR1 cytoplasmic domain (398-822 AA) expressed in baculovirus at 10 uM using FAM-labelled peptide as substrate pre-incubated for 10 mins followed by substrate addition by mobility shift assay relative to control
Chain of Fibroblast growth factor receptor 1 (P11362 22-822 limits assumed): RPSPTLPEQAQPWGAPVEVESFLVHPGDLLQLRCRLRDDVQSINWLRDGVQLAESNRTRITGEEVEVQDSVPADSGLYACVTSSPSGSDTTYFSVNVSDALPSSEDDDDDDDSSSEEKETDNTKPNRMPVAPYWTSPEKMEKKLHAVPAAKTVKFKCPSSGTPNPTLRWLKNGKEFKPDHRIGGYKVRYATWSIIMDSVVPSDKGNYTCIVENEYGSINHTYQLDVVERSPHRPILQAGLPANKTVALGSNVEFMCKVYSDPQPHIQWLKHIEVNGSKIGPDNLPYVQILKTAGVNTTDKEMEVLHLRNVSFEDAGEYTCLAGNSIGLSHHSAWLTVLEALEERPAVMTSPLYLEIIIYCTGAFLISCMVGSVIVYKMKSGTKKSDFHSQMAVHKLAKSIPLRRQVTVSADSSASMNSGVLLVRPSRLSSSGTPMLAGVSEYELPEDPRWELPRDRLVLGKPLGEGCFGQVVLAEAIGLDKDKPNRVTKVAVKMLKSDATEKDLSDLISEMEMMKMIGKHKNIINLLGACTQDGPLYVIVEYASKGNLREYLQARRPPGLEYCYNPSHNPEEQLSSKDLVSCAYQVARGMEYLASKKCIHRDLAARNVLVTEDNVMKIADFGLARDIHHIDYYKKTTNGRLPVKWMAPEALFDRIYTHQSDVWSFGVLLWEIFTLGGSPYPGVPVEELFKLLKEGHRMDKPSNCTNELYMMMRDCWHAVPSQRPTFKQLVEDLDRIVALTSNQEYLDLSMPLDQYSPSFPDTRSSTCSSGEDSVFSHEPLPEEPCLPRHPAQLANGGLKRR

[7] = test system: NCI-H226; experiment: Antiproliferative activity against human NCI-H226 cells assessed as inhibition of cell growth at 10 uM incubated for 48 hrs by MTT assay relative to control; format: functional; conditions: NCI-H226, 48 h
[8] = test system: PC-9; experiment: Antiproliferative activity against human PC9 cells assessed as inhibition of cell growth at 10 uM incubated for 48 hrs by MTT assay relative to control; format: functional; conditions: PC-9, 48 h
[9] = test system: NCI-H1581; experiment: Antiproliferative activity against human NCI-H1581 cells assessed as inhibition of cell growth at 10 uM incubated for 48 hrs by MTT assay relative to control; format: functional; conditions: NCI-H1581, 48 h

Row | SMILES | inhibition [1] [%] | inhibition [2] [%] | inhibition at 10 µM [3] [%] | inhibition [4] [%] | inhibition at 10 µM [5] [%] | inhibition [6] [%] | inhibition at 10 µM [7] [%] | inhibition at 10 µM [8] [%] | inhibition at 10 µM [9] [%]
1 | COc1cc(NC(=O)Nc2cc(Nc3ccc(C)c(C)c3)ncn2)cc(OC)c1 | 54.1 | 43.4 | 45.7 | 39.5 | 29.5 | 21.3 | 45.3 | 66 | 20.1
2 | COc1cc(NC(=O)Nc2cc(Nc3cccc(C(C)(C)C)c3)ncn2)cc(OC)c1 | 17.1 | 10.4 | 48.7 | 29.3 | 13.1 | 5.2 | 40 | 68 | 35
3 | CC(C)(C)c1cccc(Nc2cc(NC(=O)Nc3c(Cl)cccc3Cl)ncn2)c1 | 44.7 | 57.4 | 37.3 | 68.4 | 29.6 | 10.7 | 36.5 | 87 | 64.3
4 | COc1cc(NC(=O)Nc2cc(Nc3ccc(F)c(Cl)c3)ncn2)cc(OC)c1 | 46.7 | 52.8 | 53 | 69.1 | 25.5 | 1 | 36.7 | 77.5 | 53
5 | O=C(Nc1cccc(Nc2cc(Nc3cccc(C(F)(F)F)c3)ncn2)c1)C1CC1 |  |  | 94.7 |  | 30 |  | 52.7 | 90.5 | 26
6 | COc1cc(NC(=O)Nc2cc(Nc3cc(Br)ccc3OC)ncn2)cc(OC)c1 | 51.4 | 45.2 | 76.3 | 52.4 | 43.5 | -1.5 | 42.7 | 82.5 | 23.1
7 | Cc1ccc(Nc2cc(NC(=O)Nc3c(Cl)cccc3Cl)ncn2)cc1C | 64.8 | 58.6 | 84.3 | 63.8 | 47.5 | 45.3 | 41.3 | 92.1 | 73.3
8 | COc1cc(NC(=O)Nc2cc(Nc3cc(F)ccc3OC)ncn2)cc(OC)c1 | 31.1 | 35.4 | 59 | 54.6 | 38 | -1.6 | 37.7 | 59.5 | 42.1
9 | COc1cc(NC(=O)Nc2cc(Nc3ccc(C)c(F)c3)ncn2)cc(OC)c1 | 31.7 | 51.5 | 72 | 64.2 | 30.6 | 0.1 | 39.7 | 77.5 | 38
10 | COc1cc(NC(=O)Nc2cc(Nc3ccc(OC)c(C)c3)ncn2)cc(OC)c1 | 74.9 | 54.9 | 48.3 | 46.5 | 13.5 | 36.6 | 39.7 | 62 | 19.7
11 | COc1cc(Br)ccc1Nc1cc(NC(=O)Nc2c(Cl)cccc2Cl)ncn1 | 65.6 | 75.9 | 42.7 | 83.2 | 29.1 | 12.6 | 43 | 90.5 | 47.3
12 | COc1ccc(F)cc1Nc1cc(NC(=O)Nc2c(Cl)cccc2Cl)ncn1 | 39.2 | 48.7 | 78 | 63.3 | 38 | 11.1 | 31.3 | 85.5 | 73.1
13 | COc1cc(NC(=O)Nc2cc(Nc3ccc(Br)cc3OC)ncn2)cc(OC)c1 | 12.4 | 17.9 | 57.7 | 36.9 | 36 | -0.7 | 25.7 | 83 | 20.1
14 | COc1ccc(Br)cc1Nc1cc(NC(=O)Nc2c(Cl)cccc2Cl)ncn1 | 87.3 | 93.5 | 53 | 95.9 | 45 | 37.8 | 33 | 69 | 53.3
15 | COc1cc(NC(=O)Nc2cc(Nc3cc(OC)cc(C(F)(F)F)c3)ncn2)cc(OC)c1 | 18.5 | 27.5 | 57.7 | 48.6 | 36.5 | -1.7 | 56 | 88.1 | 50.7
16 | CCc1cccc(Nc2cc(NC(=O)Nc3cc(OC)cc(OC)c3)ncn2)c1 | 10.1 | 26 | 52.6 | 41 | 23 | 1.1 | 36.7 | 82.1 | 27.7
17 | COc1cc(NC(=O)Nc2cc(Nc3ccc(C(C)(C)C)cc3)ncn2)cc(OC)c1 | -1.1 | -0.2 | 32.7 | 2.7 | 17.5 | -0.7 | 47.7 | 74.1 | 38.7
18 | Cc1ccc(Nc2cc(NC(=O)Nc3c(Cl)cccc3Cl)ncn2)cc1F | 77.8 | 87.1 | 85.3 | 67.2 | 33.5 | 51 | 40.7 | 92 | 45.3
19 | COc1ccc(C(F)(F)F)cc1Nc1cc(NC(=O)Nc2c(Cl)cccc2Cl)ncn1 | 77.5 | 73 | 68.7 | 83.1 | 33 | 55.4 | 60.1 | 89 | 69
20 | CC(C)(C)c1ccc(Nc2cc(NC(=O)Nc3c(Cl)cccc3Cl)ncn2)cc1 | 48.2 | 63.2 | 42.3 | 71.8 | 22 | 30.4 | 40 | 41.5 | 71.3
21 | O=C(Nc1cc(Nc2ccc(F)c(Cl)c2)ncn1)Nc1c(Cl)cccc1Cl | 94.3 | 96.7 | 53.7 | 97 | 39.5 | 27.6 | 47.3 | 91.1 | 67
22 | COc1cc(Nc2cc(NC(=O)Nc3c(Cl)cccc3Cl)ncn2)cc(C(F)(F)F)c1 | 40 | 48.4 | 57.7 | 69.3 | 23.1 | 0.9 | 33.1 | 88.5 | 32.3
